Key:
[1] = cited from earlier work
[2] = storage stability (potency / % remaining after storage); type: physicochemical

| SMILES | solubility in water [1] | % Remaining ([2]; 9 weeks at 50°C, in sealed glass vials) [%] | potency remaining ([2]; 28 days at 37°C) [%] | % Remaining ([2]; 28 days at 80% Relative Humidity, 37°C) [%] | potency ([2]; storage for 63 days at 30°C) [%] |
| --- | --- | --- | --- | --- | --- |
| COc1cc([C@@H]2c3cc4c(cc3[C@@H](O[C@@H]3O[C@@H]5CO[C@@H](C)O[C@H]5[C@H](O)[C@H]3O)[C@H]3COC(=O)[C@H]23)OCO4)cc(OC)c1O [etoposide, Etoposide] | about 0.1 mg/ml | – | – | – | – |
| COc1cc(C2c3cc4c(cc3C(OC3OC5COC(C)OC5C(O)C3O)C3COC(=O)C23)OCO4)cc(OC)c1OP(=O)([O-])[O-].O.O.O.O.O.O.[Na+].[Na+] (centres unmarked) [hexahydrate, Etoposide 4'-Phosphate Disodium salt hexahydrate] | – | 99.4 | 100 | 100.0 | > 99 |

— EP0548834B1, “Stable hexahydrate of etoposide 4'-phosphate disodium salt” (Bristol-Myers Squibb Company, priority 1991, dated 1993)
